Measured values as given in patent US6905699B2, “Insecticides” (Sumitomo Chemical Company, Limited, priority 2000, dated 2005).

System: Silverleaf Whitefly (Bemisia argentifolii)
Experiment: Insecticidal test against silverleaf whitefly on cabbage seedlings (spray)
Assay type: in vivo
Conditions: spray on infested cabbage seedlings, total of adults and larvae, 9 days after treatment
Description: Insecticidal Test Against Silverleaf Whitefly (Bemisia argentifolii)
To each of an aqueous dilution in a designated concentration of an emulsifiable concentrate of Compound A (commercial name: Lano EC, manufactured by Sumitomo Chemical Co., Ltd.) and a flowable of Compound B (commercial name: Sanmite flowable, manufactured by Nissan Chemical Industries, Ltd.), and a mixture of the emulsifiable concentrate of Compound A in a designated concentration with the flowable of Compound B in a designated concentration, a spreading agent (Shin-Rino, manufactured by Nihon Nohyaku Co., Ltd.) was added to make the amount of the spreading agent to 1/3000 of volume to prepare a spray solution.
Cabbage seedlings planted in 3 ounces plastic cup were placed in a net cage containing many living silverleaf whiteflies for 24 hours, so that silverleaf whiteflies became parasitic on the cabbage seedlings. Each of the above-prepared test solutions was sprayed with a spray gun. The number of silverleaf whiteflies (i.e., the total number of adults and larvae) surviving on the cabbage seedlings was examined just before and after 9 days from the treatment.

Row | SMILES | Number of surviving insects after 9 days (50 ppm active ingredient) | Number of surviving insects after 9 days (12.5 ppm active ingredient) | Number of surviving insects after 9 days (100 ppm active ingredient)
1 | CC(COc1ccc(Oc2ccccc2)cc1)Oc1ccccn1 (stereo not shown) [Compound A, 4-phenoxyphenyl 2-(2-pyridyloxy)propyl ether] | 30 |  | 
2 | CC(C)(C)c1ccc(CSc2cnn(C(C)(C)C)c(=O)c2Cl)cc1 [Compound B, 2-tert-butyl-5-(4-tert-butylbenzylthio)-4-chloropyridazin-3(2H)-one] | 10 | 155 | 13
